Data taken from publication PMC8880361, “Design, Molecular Docking, Synthesis, Anticancer and Anti-Hyperglycemic Assessments of Thiazolidine-2,4-diones Bearing Sulfonylthiourea Moieties as Potent VEGFR-2 Inhibitors and PPARγ Agonists” (Pharmaceuticals, 2022).

Key:
HepG2 = assay: In vitro cytotoxicity, MTT colorimetric assay; type: cell-based, human; settings: for IC50: Homo sapiens, HepG2, MTT, mean ± S.D. of triplet separate experiments; for fold more toxic against HepG2 than normal VERO cells: ratio VERO vs HepG2
MCF-7 = assay: In vitro cytotoxicity, MTT colorimetric assay; type: cell-based, human; settings: for IC50: Homo sapiens, MCF7, MTT, mean ± S.D. of triplet separate experiments; for fold higher toxicity in MCF-7 than in normal VERO cells: ratio VERO vs MCF-7
HCT116 = assay: In vitro cytotoxicity, MTT colorimetric assay; type: cell-based, human; settings: for IC50: Homo sapiens, HCT-116, MTT, mean ± S.D. of triplet separate experiments; for fold more toxic in HCT-116 than in normal VERO cells: ratio VERO vs HCT-116
VEGFR-2 = VEGFR-2 (Homo sapiens, UniProt P35968); assay: In vitro VEGFR-2 kinase assay (anti-phosphotyrosine antibody, Alpha Screen system); type: biochemical; settings: mean ± S.D. of triplet separate experiments
VEGFR-2, sequence (P35968 20-1356): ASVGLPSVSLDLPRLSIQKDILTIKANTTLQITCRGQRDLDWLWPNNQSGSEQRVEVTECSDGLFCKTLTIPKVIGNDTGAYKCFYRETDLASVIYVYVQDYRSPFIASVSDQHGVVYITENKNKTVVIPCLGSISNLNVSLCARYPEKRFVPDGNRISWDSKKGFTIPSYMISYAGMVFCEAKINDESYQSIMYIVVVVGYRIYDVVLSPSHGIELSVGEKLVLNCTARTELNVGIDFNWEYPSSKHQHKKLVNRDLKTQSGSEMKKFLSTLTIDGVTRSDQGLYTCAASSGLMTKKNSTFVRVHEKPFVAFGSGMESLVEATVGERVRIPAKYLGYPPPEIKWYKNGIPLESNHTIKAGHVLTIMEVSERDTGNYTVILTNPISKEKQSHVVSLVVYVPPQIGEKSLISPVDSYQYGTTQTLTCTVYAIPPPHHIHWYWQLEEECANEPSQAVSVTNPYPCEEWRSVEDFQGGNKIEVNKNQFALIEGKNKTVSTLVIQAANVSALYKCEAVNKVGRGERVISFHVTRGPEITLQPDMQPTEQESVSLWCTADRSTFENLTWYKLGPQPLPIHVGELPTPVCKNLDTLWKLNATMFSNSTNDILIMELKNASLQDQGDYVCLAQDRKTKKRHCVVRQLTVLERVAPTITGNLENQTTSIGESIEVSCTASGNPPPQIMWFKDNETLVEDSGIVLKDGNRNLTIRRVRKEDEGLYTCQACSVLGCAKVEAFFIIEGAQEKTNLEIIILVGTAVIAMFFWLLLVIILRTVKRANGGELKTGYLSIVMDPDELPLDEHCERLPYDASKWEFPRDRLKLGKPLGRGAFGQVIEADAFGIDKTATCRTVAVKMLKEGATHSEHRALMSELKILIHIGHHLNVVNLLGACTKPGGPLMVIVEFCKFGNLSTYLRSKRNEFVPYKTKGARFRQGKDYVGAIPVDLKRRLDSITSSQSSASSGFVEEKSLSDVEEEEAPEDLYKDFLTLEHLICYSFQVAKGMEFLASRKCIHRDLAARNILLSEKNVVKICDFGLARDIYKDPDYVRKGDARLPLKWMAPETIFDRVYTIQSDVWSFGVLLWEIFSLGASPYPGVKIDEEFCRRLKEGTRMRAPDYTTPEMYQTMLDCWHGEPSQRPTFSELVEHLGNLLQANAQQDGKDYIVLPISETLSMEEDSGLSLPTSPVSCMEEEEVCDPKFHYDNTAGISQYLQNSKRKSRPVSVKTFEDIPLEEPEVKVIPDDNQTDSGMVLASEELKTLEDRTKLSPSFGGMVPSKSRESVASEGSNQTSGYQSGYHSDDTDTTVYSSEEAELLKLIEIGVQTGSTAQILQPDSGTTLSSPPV

VERO normal cell lines = assay: Cytotoxicity against normal cells; type: cell-based; settings: Chlorocebus sabaeus, mean ± S.D. of triplet separate experiments
Procedure: The cytotoxic effects of the prepared derivatives against the malignant cell lines ranged from 5.77 to 17.65 μM. Derivatives 6a–c and 7a–c were, respectively, 3.41-, 3.83-, 6.93-, 4.99-, 5.45- and 7.74-fold times more toxic against HepG2 than normal VERO cells. Similarly, derivatives 6a-c and 7a-c were, respectively, 2.74-, 2.97-, 6.04-, 3.58-, 3.90- and 11.83-fold more toxic in HCT-116 than in normal VERO cells.

PPARγ = target: T1, PPARγ (Homo sapiens, UniProt P37231); assay: In vitro PPARγ ligand binding assay (Fluorescence Polarization); settings: concentration required to displace 50% of the titrated ligand; n = 3; read-out: IC50 PPARγ Binding Affinity
T1 sequence (P37231 1-505): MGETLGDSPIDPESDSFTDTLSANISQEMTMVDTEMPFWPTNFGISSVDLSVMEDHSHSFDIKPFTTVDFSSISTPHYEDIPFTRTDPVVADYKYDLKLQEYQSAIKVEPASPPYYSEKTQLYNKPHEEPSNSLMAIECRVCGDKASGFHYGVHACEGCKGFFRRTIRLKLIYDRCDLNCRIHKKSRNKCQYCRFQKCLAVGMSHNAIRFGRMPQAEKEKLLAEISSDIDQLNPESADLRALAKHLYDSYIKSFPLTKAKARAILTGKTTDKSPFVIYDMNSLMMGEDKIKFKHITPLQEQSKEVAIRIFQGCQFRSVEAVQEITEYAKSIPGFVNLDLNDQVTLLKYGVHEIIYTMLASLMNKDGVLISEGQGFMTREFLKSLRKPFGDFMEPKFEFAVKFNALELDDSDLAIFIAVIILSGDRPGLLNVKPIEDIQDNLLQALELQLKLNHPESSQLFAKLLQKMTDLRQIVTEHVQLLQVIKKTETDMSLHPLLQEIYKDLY

[1] = test system: isolated pancreatic islets of rats; assay: In vitro insulin secretion assay (sandwich enzyme immunoassay); type: cell-based; settings: Pancreatic islet; isolated rat pancreatic islets; concentration for 50% of the maximum action; n = 3; read-out: EC50 Insulin Secreting Activity
Procedure: Compounds 5a–c, 6a–c and 7a–c were also assessed to establish their insulin-secretion activities in vitro against isolated pancreatic islets of rats through the quantitative sandwich technique of enzyme immunoassay. Glimiperide was applied as the standard. The findings are described as the EC50 values (Table 4).

| SMILES | IC50 (VEGFR-2) [µM] | melting point [°C] | IC50 (PPARγ) [µM] | EC50 [1] [µM] | IC50 (HepG2) [µM] | IC50 (MCF-7) [µM] | IC50 (HCT116) [µM] | fold more toxic against HepG2 than normal VERO cells (HepG2) [fold] | fold more toxic in HCT-116 than in normal VERO cells (HCT116) [fold] | IC50 (VERO normal cell lines) [µM] | fold higher toxicity in MCF-7 than in normal VERO cells (MCF-7) [fold] |
| --- | --- | --- | --- | --- | --- | --- | --- | --- | --- | --- | --- |
| COc1cccc2c1C(=O)c1c(O)c3c(c(O)c1C2=O)C[C@@](O)(C(=O)CO)C[C@@H]3O[C@H]1C[C@H](N)[C@H](O)[C@H](C)O1 [Doxorubicin, reference compound] | – | – | – | – | 7.94 ± 0.6 | 6.75 ± 0.4 | – | – | – | – | – |
| NS(=O)(=O)c1ccc(NC(=O)CN2C(=O)SC(=Cc3ccccc3)C2=O)cc1 [Compound 4a, 2-(5-Benzylidene-2,4-dioxothiazolidin-3-yl)-N-(4-sulfamoylphenyl)acetamide] | 0.92 ± 0.06 | 226 to 228 | – | – | 52.9 ± 5.1 | 55 ± 5.1 | 55.1 ± 5.1 | – | – | – | – |
| O=C(CN1C(=O)SC(=Cc2ccccc2)C1=O)Nc1ccc(S(=O)(=O)NC(=S)NC2CCCCC2)cc1 [Compound 6c, 2-(5-Benzylidene-2,4-dioxothiazolidin-3-yl)-N-(4-(N-(cyclohexylcarbamothioyl)sulfamoyl)phenyl)-acetamide] | 0.08 ± 0.02 | – | 0.3 | 0.7 | 8.99 ± 1.2 | 8.15 ± 1.6 | 7.11 ± 1.7 | 6.93 | 6.04 | 49.26 ± 0.22 | – |
| Cc1ccc(C=C2SC(=O)N(CC(=O)Nc3ccc(S(=O)(=O)NC(=S)NC4CCCCC4)cc3)C2=O)cc1 [Compound 7c, N-(4-(N-(Cyclohexylcarbamothioyl)sulfamoyl)phenyl)-2-(5-(4-methylbenzylidene)-2,4-dioxothiazolidin-3-yl)acetamide] | 0.08 ± 0.02 | – | 0.296 | 0.7 | 8.82 ± 1.9 | 7.78 ± 1.9 | 5.77 ± 1.9 | 7.74 | 11.83 | 68.25 ± 0.21 | 8.77 |
| CCC1=C(C)CN(C(=O)NCCc2ccc(S(=O)(=O)NC(=O)N[C@H]3CC[C@H](C)CC3)cc2)C1=O [Glimiperide, reference compound] | – | – | – | 0.73 | – | – | – | – | – | – | – |
| Cc1ccc(C=C2SC(=O)N(CC(=O)Nc3ccc(S(=O)(=O)NC(=S)Nc4ccccc4)cc3)C2=O)cc1 [Compound 7b, 2-(5-(4-Methylbenzylidene)-2,4-dioxothiazolidin-3-yl)-N-(4-(N-(phenylcarbamothioyl)sulfamoyl)-phenyl)acetamide] | 0.11 ± 0.02 | – | 0.305 | 0.75 | 9.65 ± 1.7 | 12.9 ± 1.7 | 13.5 ± 1.6 | 5.45 | 3.90 | 52.61 ± 0.22 | 4.08 |
| Cc1ccc(C=C2SC(=O)N(CC(=O)Nc3ccc(S(N)(=O)=O)cc3)C2=O)cc1 [Compound 4b, 2-(5-(4-Methylbenzylidene)-2,4-dioxothiazolidin-3-yl)-N-(4-sulfamoylphenyl)acetamide] | 0.89 ± 0.06 | 240 to 242 | – | – | 48.6 ± 5.1 | 62.4 ± 5.1 | 57.9 ± 5.1 | – | – | – | – |
| NS(=O)(=O)c1ccc(NC(=O)CN2C(=O)CSC2=O)cc1 [Compound 3, 2-(2,4-Dioxothiazolidin-3-yl)-N-(4-Sulfamoylphenyl)-Acetamide] | 0.93 ± 0.06 | – | – | – | 58.6 ± 5.1 | 60.2 ± 5.1 | 61.5 ± 5.1 | – | – | – | – |

Second part, led by results:

| IC50 (VEGFR-2) [µM] | melting point [°C] | IC50 (PPARγ) [µM] | EC50 [1] [µM] | SMILES | IC50 (HepG2) [µM] | IC50 (MCF-7) [µM] | IC50 (HCT116) [µM] | fold more toxic against HepG2 than normal VERO cells (HepG2) [fold] | fold more toxic in HCT-116 than in normal VERO cells (HCT116) [fold] | IC50 (VERO normal cell lines) [µM] | fold higher toxicity in MCF-7 than in normal VERO cells (MCF-7) [fold] |
| --- | --- | --- | --- | --- | --- | --- | --- | --- | --- | --- | --- |
| 0.17 ± 0.02 | 282 to 284 | 0.323 | 0.87 | CCNC(=S)NS(=O)(=O)c1ccc(NC(=O)CN2C(=O)SC(=Cc3ccccc3)C2=O)cc1 [Compound 6a, 2-(5-Benzylidene-2,4-dioxothiazolidin-3-yl)-N-(4-(N-(ethylcarbamothioyl)sulfamoyl)phenyl)acetamide] | 14.2 ± 2.3 | 16.5 ± 2.3 | 17.7 ± 2.3 | 3.41 | 2.74 | 48.31 ± 0.22 | 2.93 |
| 0.14 ± 0.02 | 285 to 287 | 0.32 | 0.81 | CCNC(=S)NS(=O)(=O)c1ccc(NC(=O)CN2C(=O)SC(=Cc3ccc(C)cc3)C2=O)cc1 [Compound 7a, N-(4-(N-(Ethylcarbamothioyl)sulfamoyl)phenyl)-2-(5-(4-methylbenzylidene)-2,4-dioxothiazolidin-3-yl)acetamide] | 12.1 ± 1.5 | 16.7 ± 1.5 | 16.8 ± 1.5 | 4.99 | 3.58 | 60.12 ± 0.18 | 3.61 |
| 0.44 ± 0.05 | 267 to 269 | 0.36 | 1 | O=C(CN1C(=O)CSC1=O)Nc1ccc(S(=O)(=O)NC(=S)NC2CCCCC2)cc1 [Compound 5c, N-(4-(N-(Cyclohexylcarbamothioyl)sulfamoyl)phenyl)-2-(2,4-dioxothiazolidin-3-yl)acetamide] | 20.8 ± 2.6 | 24.6 ± 2.6 | 23.6 ± 2.6 | – | – | – | – |
| 0.46 ± 0.05 | – | 0.393 | 1.2 | CCNC(=S)NS(=O)(=O)c1ccc(NC(=O)CN2C(=O)CSC2=O)cc1 [Compound 5a, 2-(2,4-Dioxothiazolidin-3-yl)-N-(4-(N-(ethylcarbamothioyl)sulfamoyl)phenyl)acetamide] | 24.5 ± 2.2 | 28.8 ± 2.2 | 40.1 ± 2.2 | – | – | – | – |
| 0.44 ± 0.05 | 262 to 264 | 0.377 | 1.13 | O=C(CN1C(=O)CSC1=O)Nc1ccc(S(=O)(=O)NC(=S)Nc2ccccc2)cc1 [Compound 5b, 2-(2,4-Dioxothiazolidin-3-yl)-N-(4-(N-(phenylcarbamothioyl)sulfamoyl)phenyl)acetamide] | 22 ± 2 | 23.2 ± 2 | 25.7 ± 2 | – | – | – | – |
| 0.15 ± 0.02 | 286 to 288 | 0.308 | 0.78 | O=C(CN1C(=O)SC(=Cc2ccccc2)C1=O)Nc1ccc(S(=O)(=O)NC(=S)Nc2ccccc2)cc1 [Compound 6b, 2-(5-Benzylidene-2,4-dioxothiazolidin-3-yl)-N-(4-(N-(phenylcarbamothioyl)sulfamoyl)phenyl)-acetamide] | 10.7 ± 1.6 | 13 ± 1.2 | 13.8 ± 1.2 | 3.83 | 2.97 | 40.88 ± 0.22 | 3.16 |
